These results are taken from patent US12617757B2, “Compounds and modules for inhibition of pre-miR-21 and their use in treatment of certain cancers” (University of Florida Research Foundation, Incorporated, priority 2019, dated 2026).

In one data set the test system is MDA-LM2 cells. Description: Boyden chamber invasion assay, MDA-LM2. Type of data set: cell-based. The following applies: LNA-21 100 nM, 2 1000 nM. As for the experimental part: Boyden Chamber Invasion Assay. The MDA-MB-231, MDA-LM2, A375, A549, or MCF-10a cells (5×10^4) were seeded into Hanging Cell Culture Inserts for 24 well plates with uncoated membranes with 8.0 μm pores (Millicell) in serum free growth media. A 3 mg/mL layer (100 μL) of Matrigel (Fisher Scientific: CB40234) diluted with serum free growth media was prepared inside of each membrane. Cells were cultured as described above, with or without compound treatment, and allowed to invade towards complete growth media in the bottom well for 16-24 h before ending the experiment by removing the media in the bottom wells and inserts. The hanging cell culture inserts and bottom wells were washed twice with 1×PBS, gently shaking to mix. Excess liquid and cells inside the insert were removed with cotton swabs, after which 400 μL of 4% paraformaldehyde was placed into the bottom well and incubated for 20 min at room temperature to fix the cells. […] Four different fields of view from each captured image were counted for crystal violet stained or unstained cells. Normalized cells invaded was calculated with equation 5 (Eq 5): […]
where stained cells represent cells counted with crystal violet stain observed in the compound treated or vehicle treated samples, respectively.

The next data set concerns MDA-MB-231-Luc cells. Description: In vivo MDA-MB-231 lung metastasis model in NOD/SCID mice. Set-up: species or system mouse. The following applies: 10 mg/kg; for lung nodules / metastasis to lung: 6 weeks. As for the experimental part:
FIGS. 46A-46C. In vivo mouse weights and Scrambled FISH staining of lung nodules with 5 treatment. […] Treatment of mice with 10 mg/kg of 5 started after 6 days of tumor cell injection. […] Dashed line indicates normalized signal intensity in vehicle samples.
Intravenous delivery of MDA-MB-231 cells to mice is a model of breast cancer metastasis and metastatic behavior can be affected by inhibition of miR-21, S. Yang, J. J. Zhang, X.-Y. Huang, Mouse models for tumor metastasis. Methods Mol. Biol. 928, 221-228 (2012).

Data set [1] relates to pre-miR-21. Description: Measurement of catalytic activity in MDA-MB-231 cells. In kind it is cell-based, human. As for the experimental part: Measurement of Catalytic Activity. The MDA-MB-231 cells were plated into a 24-well plates (Corning). At ˜80% confluency, the media was aspirated and the cell monolayer was washed with 1×DPBS. Cells were then incubated with 5 (500 nM) or vehicle (DMSO) diluted in cell culture medium for 24 h. Cells were then lysed using 250 μL of RNA Lysis Buffer from a Quick-RNA MiniPrep Kit (Zymo Research). A 100 μL aliquot was transferred to black, non-binding surface, half area 96-well plates (Corning). Fractions of untreated cell lysate were combined and used to generate a standard curve of 5 in cell lysate, by spiking in known concentrations of 5. Fluorescence intensity (Ex: 345 nm, Em: 460 nm) was then measured on a Molecular Devices SpectraMax M5 plate reader to determine compound concentration in cell lysate. Using the generated standard curve, the concentration of 5 in the […] cell lysate aliquot was then used to extrapolate the amount of 5 in pmol in the full 250 μL volume.
RNA was extracted from the cell lysates, followed by RT-qPCR as described above. A standard curve was generated for the pre-miR-21 WT transcript using in vitro transcribed pre-miR-21 (10 ng, 1 ng, 0.1 ng, 0.01 ng, 0.001 ng, 0.0001 ng, 0 ng) completed with each run to accurately calibrate Ct values. The amount of cleaved pre-miR-21 was then calculated by taking the difference between the pmol of pre-miR-21 in untreated samples and the pmol of pre-miR-21 in 5-treated samples. Catalytic activity, or turnover, was calculated by taking the ratio of the pmol of cleaved pre-miR-21 and the pmol of 5 in the sample.

The test system of data set [2] is pre-miR-21. Kind of data set: In vitro RNase L cleavage of pre-miR-21 (FRET sensor, gel mapping). Type of data set: biochemical. As for the experimental part:
In Vitro Fluorescent RNA Cleavage. A model RNA hairpin^15 labeled with a 5′ 6-Fluorescein (6FAM) and 3′ Black Hole Quencher (IQ4) (5′ 6FAM-[…]-3′ IQ4; 5′ FAM/3′ BHQ model RNA) (SEQ ID NO: 3) or a miR-21 Hairpin Precursor RNA labeled with a 5′ 6-Fluorescein (6FAM) and 3′ Black Hole Quencher (IQ4) (5′ 6FAM-[…] […]-3′ IQ4; 5′ FAM/3′ BHQ miR-21 Hairpin Precursor RNA) (SEQ ID NO: 4) was purchased from Chemgenes with HPLC purification. Solutions of RNA (100 nM) were folded at 65° C. for 5 min and slowly cooled to room temperature in 1×RNase L Buffer (25 mM Tris-HCl, pH 7.4, 100 mM KCl) without MgCl2, β-mercaptoethanol or ATP. After folding, the RNA was supplemented with 10 mM MgCl2, fresh 7 mM β-mercaptoethanol, and 50 μM of ATP. Next, 100 nM of RNase L, prepared as described previously^22, and various concentrations of screening compounds were prepared in 1×RNase L Buffer and added to the RNA. […] The samples were incubated at room temperature for 60 min after which the fluorescence intensity (Ex: 485 nm, Em: 525 nm) was measured using a SpectraMax M5 plate reader or Biotek FLx800 plate reader. The percentage change in fluorescence intensity, where enhancement of fluorescence intensity was indicative of RNA cleavage, was determined by calculating the percentage change in sample fluorescent signals relative to the untreated fluorescent signal (Fi, %). […]

For the molecule `CCCN(CC(=O)N(CCC)CC(=O)N(CCC)CC(=O)N(CC(N)=O)Cc1cn(CCCNC(=O)CCCOc2ccc(-c3nc4cc(-c5ccc(N6CCN(C)CC6)cc5)ccc4[nH]3)cc2)nn1)C(=O)CNCc1cn(CCCNC(=O)CCCOc2ccc(-c3nc4cc(-c5ccc(N6CCN(C)CC6)cc5)ccc4[nH]3)cc2)nn1` [Compound 2], in the data set with MDA-LM2 cells, the effect on invasion entry is “decreased the invasive phenotype”.

In the case of `CCCN(CC(=O)N(CCC)CC(=O)N(CCC)CC(=O)N(CC(=O)NCCOCCOCCOCCOc1ccc(C=C2SC(Nc3ccccc3)=C(C(=O)OCC)C2=O)cc1O)Cc1cn(CCCNC(=O)CCCOc2ccc(-c3nc4cc(-c5ccc(N6CCN(C)CC6)cc5)ccc4[nH]3)cc2)nn1)C(=O)CN(Cc1cn(CCCNC(=O)CCCOc2ccc(-c3nc4cc(-c5ccc(N6CCN(C)CC6)cc5)ccc4[nH]3)cc2)nn1)C(C)=O` [Compound 5], the “weight changes compared to vehicle-treated mice” value with MDA-MB-231-Luc cells (over 42 days, NOD/SCID mice) is given as “did not cause significant weight changes”. For the same molecule, in the data set on MDA-MB-231-Luc cells (q.o.d.), the “PDCD4 in lung nodule tissue sections” value is given as “increased PDCD4 levels”; the “hematoxylin and eosin (HE) staining of lung tissue” value is “decreased hematoxylin and eosin (HE) staining”; the “mature miR-21 in lung nodule tissue (FISH)” value is on record as “decreased mature miR-21”; the “pre-miR-21 in lung nodule tissue (FISH)” value is reported as “decreased”. Also, the “lung nodules / metastasis to lung” value with MDA-MB-231-Luc cells (q.o.d.) is listed as “decreased lung nodules”. Further, in the data set on MDA-MB-231-Luc cells (q.o.d., listed as Formula 5), the “lung nodules / metastasis to lung” value was “inhibited breast cancer metastasis to lung”, the “PDCD4 in lung nodule tissue sections” value is recorded as “increase in PDCD4 protein expression”, the “mature miR-21 in lung nodule tissue (FISH)” value is listed as “diminished” and the “pre-miR-21 in lung nodule tissue (FISH)” value was “diminished”. For the same molecule, the tolerability entry in the data set on MDA-MB-231-Luc cells (intraperitoneal injection, q.o.d.) is given as “well tolerated”. Further, the “Average pre-miR-21” value with pre-miR-21 [1] (500 nM, 24 h, MDA-MB-231, mean ± s.d. (n = 6)) worked out at 16 ± 3.8 pmol. Besides, in the data set on pre-miR-21 [1] (500 nM, 24 h, difference untreated minus treated, mean ± s.d.), the “Cleaved pre-miR-21” value stood at 68 ± 6.7 pmol. In the data set with pre-miR-21 [1] (500 nM, 24 h, ratio Cleaved pre-miR-21 / 5 Detected, mean ± s.d.), the Turnovers was determined as 26 ± 2.5. Moreover, in the data set with pre-miR-21 [1] (MDA-MB-231), the “moles of pre-miR-21 cleaved by one mole of compound” value came to 26 mol. Moreover, the “cleavage sites in labeled pre-miR-21 WT RNA (gel mapping)” value in the data set on pre-miR-21 [2] (5 and RNase L treatment) was “Cleavage was observed at U27, G25, C23, and G21”. The “fluorescence cleavage of pre-miR-21 labeled FRET sensor” value in the data set on pre-miR-21 [2] (with RNase L) was “dose responsive increase in cleavage”.
